Test results from patent publication US5411956A, “Lipolytic enzyme inhibitors” (Nisshin Flour Milling Co., Ltd., priority 1989, dated 1995).

Legend:
[1] = target: T1, porcine pancreatic lipase (Sus scrofa, UniProt P00591); test: Assay of lipase inhibitory activity (olive oil emulsion with sodium cholate, Tris buffer); type: biochemical
T1 construct: purchased Sigma Co., Ltd
T1 sequence (P00591 1-450): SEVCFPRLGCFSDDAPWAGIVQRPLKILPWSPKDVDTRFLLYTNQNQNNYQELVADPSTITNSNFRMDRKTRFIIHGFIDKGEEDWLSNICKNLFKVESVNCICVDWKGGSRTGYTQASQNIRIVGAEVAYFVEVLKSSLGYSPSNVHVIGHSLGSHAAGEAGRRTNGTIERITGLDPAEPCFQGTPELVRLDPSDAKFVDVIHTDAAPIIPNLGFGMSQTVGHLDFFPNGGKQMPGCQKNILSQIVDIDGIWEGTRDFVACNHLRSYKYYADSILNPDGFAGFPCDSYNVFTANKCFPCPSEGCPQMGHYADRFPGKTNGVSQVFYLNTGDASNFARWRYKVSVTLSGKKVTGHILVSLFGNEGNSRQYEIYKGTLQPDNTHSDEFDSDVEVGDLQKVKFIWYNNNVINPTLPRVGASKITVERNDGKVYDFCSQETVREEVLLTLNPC
Method: 250 mg of an olive oil, 21.5 mg of sodium cholate as a bile acid component and 30 mg of phosphatidylcholine were added to 5 ml of a 200 mM Tris buffer solution at pH 6.8 (called hereafter "Tris buffer").
(§1) The mixture was ultrasonicated to prepare an olive oil emulsion.
Porcine pancreatic lipase (manufactured by Sigma Co., Ltd.) was added to Tris buffer to prepare an enzyme solution containing 100 units porcine pancreatic lipase per ml.
(§2) The control and six test samples were prepared in the following manner.
(§3) 100 μl of an olive oil emulsion as prepared above were used as a substrate.
(§4) 50 μl of Tris buffer was added to the substrate to prepare an emulsion for control sample. […] All of the emulsions were incubated for 5 min. To each of those emulsions was added 50 μl of the lipase solution as prepared above. The resulting mixture was incubated at 37° C. for one hour, subsequently to which were added 3 ml of the same extraction solvent as used in Example 1. After being shaken for 5 min., the mixture was centrifuged at 3000 rpm for 5 min. The upper layer was removed with an aspirator and to the remaining solution was added 1 ml of the same copper reagent as used in Example 1. The mixture was shaken for 5 min. and centrifuged at 3000 rpm for 5 min. 0.5 ml of a solution was taken from the upper layer and to the solution was added 0.5 ml of the same color developing agent as used in Example 1.
(§5) The resulting solutions for control and test samples were measured for the absorbance at 480 nm (A480) using a photometer to determine the amount of the free fatty acids as formed, i.e., the activity of the porcine pancreatic lipase.
100 μl of an olive oil emulsion prepared in the same way as in Example 4 were used as a substrate.
50 μl of Tris buffer was added to the substrate to prepare an emulsion for control sample. Each 50 μl of the polypeptide-containing solutions as prepared above was added to 100 μl of the substrate to prepare two emulsions for test sample. After incubating the emulsions for 5 min., there was added 50 μl of the enzyme solution prepared in the same way as in Example 4.
Further, the incubated mixture was treated and measured for the activity of porcine pancreatic lipase in the same way as in Example 4.
Lysine oligomers having a degree of polymerization of 2-5 as shown in Table 6 below were prepared using a peptide synthesizer (Biolynx 4170, LKB-Pharmacia Co., Ltd.). Each of the oligomers was purified by high performance liquid chromatography. Each of the purified oligomers was added to distilled water to make up to 1 μmol/ml. […] lysine oligomer-containing solutions were thus prepared.
50 μl of Tris buffer was added to the substrate to prepare an emulsion for control sample. […] After incubating the emulsions for 5 min., there was added 50 μl of a lipase solution containing 100 units of porcine pancreatic lipase per ml as prepared in the same way as in Example 4.

[2] = target: T1, porcine pancreatic lipase; test: Assay of lipase inhibitory activity of proteins (olive oil emulsion with sodium cholate, potassium phosphate buffer); type: biochemical; settings: for Activity of porcine pancreatic lipase (%): 4 mg/ml protein solution, percentage of control Abs480, sodium cholate present, potassium phosphate buffer pH 6.8, 37 °C, one hour
Method: 250 mg of an olive oil, 21.5 mg of sodium cholate as a bile acid component and 30 mg of phosphatidylcholine were added to 5 ml of a 300 mM potassium phosphate buffer solution at pH 6.8 (called hereafter "potassium phosphate buffer").
as §1
Porcine pancreatic lipase (manufactured by Sigma Co., Ltd.) was added to the potassium phosphate buffer solution to prepare a lipase solution containing 100 units porcine pancreatic lipase per ml.
as §2, §3
50 μl of potassium phosphate buffer was added to the substrate to prepare an emulsion for control sample. Each 50 μl of the protein(polypeptide)-containing solutions as prepared above was added to 100 μl of the substrate to prepare six emulsions for test samples. All of the emulsions were incubated for 5 min. To each of those emulsions was added 50 μl of the lipase solution as prepared above. The resulting mixture was incubated at 37 ° C. for one hour, subsequently to which were added 3 ml of an extraction solvent (chloroform:methanol:n-heptane=49:1:49). After being shaken for 5 min., the mixture was centrifuged at 3000 rpm for 5 min. The upper layer was removed with an aspirator and to the remaining solution was added 1 ml of a copper reagent (0.45M triethanol amine, 0.05N acetic acid, 3.4% copper sulfate pentahydrate and 20% sodium chloride). The mixture was shaken for 5 min. and centrifuged at 3000 rpm for 5 min. 0.5 ml of a solution was taken from the upper layer and to the solution was added 0.5 ml of a color developing agent (a solution of 0.1% bathocuproine and 0.05% butyl hydroxyanisole in the above extraction solvent).
as §5

[3] = test system: cholesterol esterase isolated from porcine pancreas; settings: 4 mg/ml protein solution; percentage of control Abs480; sodium cholate present; 37 °C, one hour
Method: as §3
as §4, with “potassium phosphate” for “Tris”

[4] = Serum triglyceride concentration in rats after oral corn oil emulsion; type: in vivo, SD male rats; settings: 2 ml corn oil emulsion + 100 mg ε-poly-L-lysine/dextrin 1:1, relative to pre-dose (0)
Method: Two groups of 10 SD male rats (9 weeks age, 200 g average bodyweight) were prepared.
50 g of corn oil, 6 g of yolk lecithine and 12.5 g of glycerol were added to distilled water to make up to 100 ml. The mixture was ultrasonicated to prepare an emulsion.
The rats of first group were each given 2 ml of the emulsion and 100 mg of ε-poly-L-lysine manufactured by Chisso Corp. (containing dextrin and ε-poly-L-lysine at a weight ratio of 1:1 and having formula (I) wherein n is ca. 30), orally using a gastric probe. Blood was drawn at predetermined intervals from the tail vein, and serum triglyceride concentration was measured using Kyowa Medics enzyme Kit TG, determined for mean value (mg/dl) per animal and calculated on the basis of serum triglyceride concentration prior to administration (taken as 0 mg/dl) (According to the invention).
The rats of second group were orally given 2 ml of the emulsion and 50 mg of dextrin. Serum triglyceride concentration was measured at predetermined intervals, determined for the average value and calculated in the same way as above (Comparative example).

[5] = 1 mg per 10 ml Tris buffer solution, pH 6.8, sodium cholate present, percentage of control Abs480
[6] = 1 mg/ml peptide solution in distilled water, Tris buffer system as Example 4

With Protamine the “Activity of porcine pancreatic lipase (%)” value [1, 5] was 1.3%.

For α-poly-D-lysine hydrobromide, the “Activity of porcine pancreatic lipase (%)” value [1, 6] was 1.1%.

In the case of α-poly-L-lysine hydrochloride, the “Activity of porcine pancreatic lipase (%)” value [1, 5] is reported as 6.9% and the “Activity of porcine pancreatic lipase (%)” value [1, 6] is reported as 1.6%.

For “β-Lactoglobulin: β-lactoglobulin (L0130, Sigma Co., Ltd.), not a basic protein [reference compound]”, the “Activity of porcine pancreatic lipase (%)” value [2] was 103.9% and the “Activity of cholesterol esterase (%)” value [3] was 89.9%.

With “β-Purothionin: purified β-purothionin (SEQ ID NO: 3) isolated from the crude wheat purothionin mixture (KSCCKSTLGRNCYNLCRARGAQKLCANVCRCKLTSGLSCPKDFPK)” the “Activity of porcine pancreatic lipase (%)” value [2] was 0%, the “Activity of porcine pancreatic lipase” value ([2]; concentration of 0.04 mg/ml, separate experiment in a similar manner) was 5.2% and the Lipase activity ([2]; protein solution diluted to 0.2 mg/ml, otherwise as Example 1) was 0%. For the same molecule, the “Activity of porcine pancreatic lipase (%)” value [1, 5] was 1.3%.

With ε-poly-L-lysine the “Blood concentration of neutral fats” value ([4]; 1 hr after oral administration) was 53.3 ± 2.5 mg/dL, the “Blood concentration of neutral fats” value ([4]; 2 hrs after oral administration) was 32.4 ± 4.9 mg/dL and the “Blood concentration of neutral fats” value ([4]; 3 hrs after oral administration) was 16.7 ± 3.2 mg/dL. The “Blood concentration of neutral fats” value ([4]; 4 hrs after oral administration) was 11.1 ± 3.0 mg/dL and the “Blood concentration of neutral fats” value ([4]; 7 hrs after oral administration) was 4.2 ± 1.0 mg/dL.

B1: Ovalbumin: ovalbumin (A5503, Sigma Co., Ltd.), not a basic protein (protein, UniProt P01012 2-386, looked up)
Ovalbumin: GSIGAASMEFCFDVFKELKVHHANENIFYCPIAIMSALAMVYLGAKDSTRTQINKVVRFDKLPGFGDSIEAQCGTSVNVHSSLRDILNQITKPNDVYSFSLASRLYAEERYPILPEYLQCVKELYRGGLEPINFQTAADQARELINSWVESQTNGIIRNVLQPSSVDSQTAMVLVNAIVFKGLWEKAFKDEDTQAMPFRVTEQESKPVQMMYQIGLFRVASMASEKMKILELPFASGTMSMLVLLPDEVSGLEQLESIINFEKLTEWTSSNVMEERKIKVYLPRMKMEEKYNLTSVLMAMGITDVFSSSANLSGISSAESLKISQAVHAAHAEINEAGREVVGSAEAGVDAASVSEEFRADHPFLFCIKHIATNAVLFFGRCVSP
With B1 the “Activity of porcine pancreatic lipase (%)” value [2] was 107.0% and the “Activity of cholesterol esterase (%)” value [3] was 93.6%.
